This data set can be described thus: pH dependent solubility of Compound A. The class given is physicochemical. The source says: The pH dependent solubility and potential rapid release in the stomach of Compound A causes difficulties in the formulation or oral dosage forms. It is desirable that release is controlled to take place over a period of hours. Such a formulation would require dosing only once a day, and this is likely to improve patient compliance.

This passage reports solubility results from patent publication US20070141146A1, “Novel compositions” (SMITHKLINE BEECHAM PHARMCO PUERTO RICO INCORPORATE, priority 2003, published 2007).

Values after ≈ are worked out from the molar mass of the structure shown.

In general, solubility refers to how much of the substance goes into solution per volume. Low values mean little dissolved substance, high ones much dissolved substance. On to `CN(CCOc1ccc(CC2SC(=O)NC2=O)cc1)c1ccccn1` (centres unmarked) [Compound A, 5-[4-[2-(N-methyl-N-(2 pyridyl)amino)ethoxy]benzyl]thiazolidine-2,4-dione], for which the solubility is roughly 80 µg/mL (≈ 0.224 mM) (aqueous buffer, pH 7, near neutral pH of the small intestine) and roughly 5000 µg/mL (≈ 14 mM) (simulated gastric fluid, pH 2, acidic regions associated with the stomach).
